According to patent US20080262053A1 (priority 2005, published 2008):

Legend:
[1] = tested on: patients with idiopathic RLS; details: continuous treatment over 6 months or more
Description: The severity of the symptoms was determined by means of the difference between the time of randomisation after 6 months and the results after the end of the trial, according to the international RLS scale. The results of 147 patients were evaluated.

[2] = tested on: patients suffering from moderate to severe RLS
Description: The expression moderate to severe RLS is used when patients reach a points score of >15 on the international RLS scale. The scale runs from 0 (no RLS symptoms) to 40 (severest form of RLS). Thus, in moderate to severe RLS, the symptoms usually occur more than twice a week.

RLS = details: open trials

With `CCCNC1CCc2nc(N)sc2C1.Cl.Cl` (stereo not drawn) [pramipexole, 2-amino-6-n-propylamino-4,5,6,7-tetrahydrobenzo-thiazole dihydrochloride] the “effect of continuous treatment on RLS symptoms” value [1] was “lasting improvement in the RLS symptoms”, the “patient-reported improvement in symptoms (quality of sleep, restlessness of the legs, etc.)” value ([2]; after only one week of treatment) was “significant improvements in all areas of symptoms” and the “subjective impression of treated patients” value ([2]; majority of treated patients) was “great or very great improvement”. For the same compound, the “improvement in the RLS symptoms” value ([2]; patients with moderate to severe RLS (>15 points on international RLS scale)) was “rapid improvement in the RLS symptoms”, the “duration of improvement in the symptoms in RLS patients (lasting effect)” value ([2]; pramipexole administered continuously) was “at least 6 months” and the “persistence of lasting clinical effects” value (RLS) was ≥ 12 months.
